Data reported in ChEMBL document CHEMBL1142653, “In silico prediction of membrane permeability from calculated molecular parameters” (J Med Chem, 2005).

Legend:
[1] = Apparent permeability of the compound was determined in MDCK (madin darby canine kidney) strain I; Activity = Papp 10e-6; format: ADME, Canis lupus familiaris; settings: dog
[2] = Apparent permeability of the compound was determined inCaco-2 (human colon carcinoma) cells; Activity = Papp 10E-6; format: ADME; settings: Caco-2

| Papp [1] [×10⁻⁶ cm/s] | Papp [2] [×10⁻⁶ cm/s] | Compound |
| --- | --- | --- |
| 0.27 | – | CN/C(=C\[N+](=O)[O-])NCCSCc1ccc(CN(C)C)o1 [RANITIDINE] |
| 37.8 | 18.2 | COCCc1ccc(OCC(O)CNC(C)C)cc1 (stereo unspecified) [METOPROLOL] |
| 34.4 | 12.6 | CC(C)NCC(O)COc1cccc2ccccc12 (stereo unspecified) [PROPRANOLOL] |

| Compound | Papp [1] [×10⁻⁶ cm/s] | Papp [2] [×10⁻⁶ cm/s] |
| --- | --- | --- |
| O=C(N[C@H](CO)[C@H](O)c1ccc([N+](=O)[O-])cc1)C(Cl)Cl [CHLORAMPHENICOL] | 3.15 | – |
